This is an account of results in patent publication US8901036B2, “Combinations of phenylsulfonylurea herbicides and safeners” (Bayer Cropscience AG, priority 1994, dated 2014).

In data set [1] the test system is ECCG. Nature of the data set: Effect and selectivity in corn: herbicidal effect. It counts as in vivo, Echinochloa crus-galli. The conditions noted are these: start of tillering (4 to 5 leaves). The method, then:
(§1) Various crop plants are grown in plastic pots with a diameter of 9 cm in a glasshouse to the stated stage and then treated with the particular herbicide or with a mixture of the herbicide and the safener by the post-emergence method. This entails the herbicide of the formula (A) and the compounds of the formula (B) being applied in the form of aqueous suspensions or emulsions with a water application rate which converts to 300 l/ha. 4 weeks after the treatment, the plants are assessed visually for every type of damage by the applied herbicides, taking particular account of the extent of persistent growth inhibition. The evaluation takes place in percentages (scale from 0 to 100%) compared with untreated controls.

Data set [2] relates to Corn. Nature of the data set: Effect and selectivity in corn: phytotoxicity. Format: in vivo. Particulars: corn 4 leaves. The protocol:
as §1

Data set [3] concerns SVFA. Nature of the data set: Effect and selectivity in corn: herbicidal effect. Format: in vivo. The protocol: as §1
The subject of data set [4] is SOHA. The data set is described as follows: Effect and selectivity in corn: herbicidal effect. It counts as in vivo, Sorghum halepense. Particulars: 3 leaves. The protocol:
as §1

Each structure is given as a SMILES string.

Consider `COC(=O)Nc1ccc(C(=O)N(C)C)c(S(=O)(=O)NC(=O)Nc2nc(OC)cc(OC)n2)c1.[Na]` [A7, N-(4,6-Dimethoxypyrimidin-2-ylaminocarbonyl)-2-(N,N-dimethylaminocarbonyl)-5-(N-methoxycarbonylamino)benzenesulfonamide sodium salt], for which the “Phytotoxicity or herbicidal effect in % ECCG” value in data set [1] (dose 25 g AS/ha) is on record as 60%; in data set [1] (dose 50 g AS/ha), 80%; in data set [1] (dose 100 g AS/ha), 90%. Also, the results for the “Phytotoxicity or herbicidal effect in % Corn” value in data set [2] (dose 25 g AS/ha), in data set [2] (dose 50 g AS/ha) and in data set [2] (dose 100 g AS/ha) were 25%, 40% and 60%, respectively. In addition, the “Phytotoxicity or herbicidal effect in % SVFA” value in data set [3] (dose 25 g AS/ha), in data set [3] (dose 50 g AS/ha) and in data set [3] (dose 100 g AS/ha) was 100% throughout. For the same compound, the figures for the “Phytotoxicity or herbicidal effect in % SOHA” value in data set [4] (dose 25 g AS/ha), in data set [4] (dose 50 g AS/ha) and in data set [4] (dose 100 g AS/ha) were 90%, 90% and 95%, respectively.

As for `COC(=O)Nc1ccc(C(=O)N(C)C)c(S(=O)(=O)NC(=O)Nc2nc(OC)cc(OC)n2)c1` [A13, N-(4,6-Dimethoxypyrimidin-2-ylaminocarbonyl)-2-(N,N-dimethylaminocarbonyl)-5-(N-methoxycarbonylamino)benzenesulfonamide], the figures for the “Phytotoxicity or herbicidal effect in % ECCG” value in data set [1] (dose 25 g AS/ha) and in data set [1] (dose 50 g AS/ha) were 99% and 100%, respectively. The “Phytotoxicity or herbicidal effect in % Corn” value is 10% in data set [2] (dose 25 g AS/ha), 20% in data set [2] (dose 50 g AS/ha) and 30% in data set [2] (dose 100 g AS/ha). Besides, the “Phytotoxicity or herbicidal effect in % SVFA” value came out at 90% in data set [3] (dose 25 g AS/ha) and 95% in data set [3] (dose 50 g AS/ha). The “Phytotoxicity or herbicidal effect in % SOHA” value was 90% in data set [4] (dose 25 g AS/ha) and 97% in data set [4] (dose 50 g AS/ha).
